From patent US10746738B2, “Claudin-1 peptide reagents and methods” (THE REGENTS OF THE UNIVERSITY OF MICHIGAN, priority 2015, dated 2020)
Ends that are not written are not given here. Cy5.5 = near infrared dye label

Legend:
claudin-1 (CLDN1) = target: T1, claudin-1 (CLDN1) (Homo sapiens, UniProt O95832); assay: siRNA knockdown of CLDN1 expression, peptide and antibody binding to SW620 cells; assay type: cell-based
T1 construct: endogenous in cells; host or cells: SW620 human colorectal adenocarcinoma cells
T1 sequence (O95832 1-211): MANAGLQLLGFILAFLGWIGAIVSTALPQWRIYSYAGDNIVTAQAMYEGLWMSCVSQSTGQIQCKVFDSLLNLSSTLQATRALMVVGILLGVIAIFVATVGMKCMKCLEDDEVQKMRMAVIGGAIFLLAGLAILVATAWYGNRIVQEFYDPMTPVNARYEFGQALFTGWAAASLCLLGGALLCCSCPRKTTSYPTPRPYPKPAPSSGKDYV
Experimental: CLDN1 expression was knocked down using Dharmacon On-Target Plus SMARTpool Human CLDN1 siRNA (Thermo Scientific) according to the manufacturer's protocol. SW620 cells were plated overnight on coverslips in a 12-well plate at 0.2×10^6 cells/mL. The following day, cells were transfected with 3 μL DharmaFECT1 and either 25 nM CLDN1 or control siRNA. After 72 h, transfected cells were analyzed for CLDN1 expression through immunocytochemistry, a peptide binding study, or a Western blot of the cell lysate. For the immunocytochemistry experiment, cells were fixed with ice-cold methanol for 20 minutes at −20° C., blocked for 1 h at RT with PBS+2% BSA, stained with anti-human CLDN1 antibody at 5 μg/mL for 1 h at RT, then with goat anti-Rabbit AF488 (1:500) for 1 h at RT before being mounted on slides with DAPI with Prolong Gold. siRNA-transfected cells were also stained with 5 μM RTS-Cy5.5 or SPT-Cy5.5 for 30 minutes at 4° C., fixed with 4% PFA for 10 minutes at RT, then mounted on slides. Simultaneously, transfected cells were lysed with RIPA buffer containing Roche Mini-Complete EDTA-free Protease Inhibitor for 10 minutes on ice, collected and spun at 20,000×g for 10 minutes at 4° C. Supernatant was saved, total protein concentration quantified via a BCA assay, and 10 ug protein of each sample run on a Novex 4-20% 1.5 mm protein gel before transferring to a PVDF membrane. The membrane was blocked with PBST+5% non-fat milk for 1 h at 4° C., stained with either rabbit anti-CLDN1 Ab or mouse anti-tubulin Ab at 4° C. overnight, then with anti-rabbit HRP (1:500, for CLDN1) or anti-mouse HRP (1:500, for tubulin) for 1 h at RT before developing.
The specificity of peptide binding was validated on siRNA knockdown. […] These cells were transfected with siRNA to knockdown cell surface expression of claudin-1. […] The fluorescence intensities (mean±std) are shown (FIG. 2H). […] Given the experimental design and mean-squared-errors shown in FIG. 2H, with triplicate slides we have 98% power to obtain P<0.01 for interactions that show a 3-fold difference of differences.

colonic dysplasia = assay: In vivo fluorescence endoscopy of colon in CPC;Apc mouse; conditions: for fluorescence signal from dysplasia on endoscopy: CPC;Apc mouse colon
Source text: A genetically engineered mouse model (Cpc;Apc) that spontaneously forms adenomatous polyps in the colon was used for this study and handled according to Institutional Guidelines. The colons of anesthetized mice were first cleaned with water before imaging with a small animal endoscope (Karl Storz Veterinary Endoscope) using the white light channel to locate polyps by identifying anatomic landmarks and the distance of the endoscope tip from the anus. […] Fluorescent and reflectance images were then collected with the same endoscope set to the appropriate channels. Once in vivo imaging was complete, four of the mice used in the study were euthanized and colons harvested. Polyps and flat lesions detected during fluorescence imaging were located, removed, and processed for histology (H&E).
These mice are genetically-engineered to spontaneously develop colonic dysplasia, and the colonic lesions that develop are molecularly and histologically similar to that seen in human disease, making these mice a good model for monitoring cancer development. Because the extra-cellular domain of claudin-1 is completely homologous between human and mouse, peptides developed for human targets can be directly used in mouse imaging experiments. […] CPC;Apc mice were imaged at ˜3 months of age when they first begin to develop dysplasia. […] After imaging is completed, mice were euthanized, and the colons were resected. Based on the location of dysplastic lesions determined using fluorescence images collected with endoscopy, a pathologist measured the depth of dysplasia on histology, as shown by the dashed arrow in FIG. 7E. […] Images are obtained from mice over at least three sessions separated by 1 week to monitor for cancer progression.

T84 monolayers = assay: Transepithelial electrical resistance (TEER) and tight junction immunofluorescence; assay type: cell-based, human
Experimental: T84 human colon carcinoma cells were grown in a 1:1 mixture of DMEM and Ham's F-12 culture medium supplemented with 5% FBS. To establish polarized monolayer, the cells were plated on transwell permeable polyester supports (1.12 cm^2, pore size 3 μm, Costar) until they reached confluence after ˜3-4 days, as determined by an increase in TEER.43 The cells were continually grown on transwell supports until the TEER reached ˜2000 Ω-cm^2. […] TEER was then measured at 6, 12 and 24 hours. The cells were fixed with 4% PFA for 12 min. After brief washing, 1% SDS in PBS was used to permeabilize the cells. These procedures were followed by 3% goat serum in PBS blocking for 30 min. Mouse anti-zonula occludens-1 (anti-ZO-1) (1:250, Life Technologies) and rabbit anti-claudin-1 (1:200, Life Technologies) antibodies were diluted in block buffer and incubated in humidity box overnight at 4° C. and fluorescent secondary antibodies were diluted to 1:1000 and incubated for 1 hour at RT. All images were obtained using Nikon A1 confocal microscope (MIL, University of Michigan).
We evaluated the effect of peptide binding on tight junction function using a polarized monolayer of T84 cells plated on transwell supports.

[1] = system: human colonic adenocarcinoma cells (SW620, SW480, HT29, HCT116); assay: Cell binding assay on adenocarcinoma cell panel and co-localization with anti-claudin-1 antibody; assay type: cell-based
Experimental: SW620, SW480, and HT29 cells were plated at 0.5×10^6 cells/mL on coverslips on 12-well plates. The following day, the cells were treated with either 10 μM either RTS*-Cy5.5 or SPT*-Cy5.5 for 1 h at 4° C., fixed with 4% PFA for 10 minutes at RT, then counterstained with DAPI with Prolong Gold. Fluorescent images were collected and analyzed as detailed above. Statistical analysis was performed using a one-way ANOVA analysis on GraphPad Prism.
The cells were incubated with the peptide (10 μM) at 4° C. for 1 hour, washed 3× with PBS, fixed with 4% PFA, and mounted with ProLong Gold containing DAPI (Invitrogen). The mean (±std) fluorescence intensities were quantified using custom Matlab software (FIG. 5F). Levels of claudin-1 expression from cytosol (C) and membrane (M) of cells are shown on western blot (FIG. 5G). The cells were then incubated with 1:50 dilution of primary anti-claudin-1 rabbit mAb (4267, Invitrogen) for 1 hour at 4° C., and washed 3× with PBS at RT. The cells were further incubated with 1:500 dilution of […] labeled with Alexa Fluor 488 (Invitrogen) for 1 hour at RT. Co-localization of peptide (red) and antibody (green) binding to SW620 cells can be appreciated on the overlay fluorescence image (FIG. 5H). A Pearson's correlation of ρ=0.56 was calculated using custom Matlab software.

human colonic tissues = assay: Ex vivo staining of human colonic tissue sections
Experimental: Human colon tissue was obtained through consenting patents at the University of Michigan Hospital. Tissue was frozen in OCT and sectioned 10 μm thick using a Cryostat. The sections were thawed before staining with 10 μM RTS*-Cy5 for 15 minutes at RT. Tissues were then washed with PBS, fixed with 4% PFA for 10 min at RT, and counterstained with DAPI with Prolong Gold. Fluorescence was imaged and quantified as outlined above.
Specimens of normal colonic mucosa, adenoma, and adenocarcinoma from the right side (proximal) of the colon were obtained from routine surveillance colonoscopy and surgically removed by endoscopic mucosal resection. The tissues were frozen in OCT (Sakura Finetek), cut in 10 μm sections, and incubated with pep*-Cy5 (5 μM) in 1×PBS for 15 minutes at RT. The sections were washed 3× with PBS. Confocal fluorescence images were collected from these sections with DAPI, FITC and Cy5 filter sets (Leica TCS SP5 Microsystems).
The mean fluorescence intensities (±SEM) from binding of pep*-Cy5 were measured for normal colonic mucosa (n=4, 7±2 AU), adenoma (n=6, 26±4 AU) and adenocarcinoma (n=5, 31±4 AU), P<0.001, unpaired t-test (FIG. 6, scale bar 500 μm). […] We found pep*-Cy5 and anti-claudin-1 mAb to stain colonic adenomas and adenocarcinomas in 11/12 (92%) and 10/10 (100%) sections, respectively.

SW620 cells = assay: Confocal signal and photostability of Cy5- versus FITC-labeled peptide on cells; assay type: cell-based, human; conditions: for mean (±std) fluorescence intensity: 10 μM, 4° C., 1 hour, n=6 cells
Experimental: We incubated pep*-Cy5 (RTS*-Cy5) and pep*-FITC ([…]) (10 μM) (FIG. 4A) with human colon adenocarcinoma (SW620) cells that over-express Claudin-1 at 4° C. for 1 hour. A supercontinuum “white light” laser provided continuous excitation at 1.5 mW for both λex=647 and 488 nm. Confocal images (Leica TCS SP5 Microsystems) were collected using Cy5 and FITC filters every 2 min. At time 0 min, peptide (RTS*-Cy5) binding to the cell surface (arrow) is shown, scale bar 10 μm (FIG. 4B). The mean (±std) fluorescence intensities for the Cy5 and FITC-labeled peptides, measured from n=6 cells, were 58.4±3.7 and 3.1±0.6 A.U. respectively, resulting in ˜20-fold increase in signal using the NIR fluorophore. We also found a 8.5% reduction in fluorescence intensity for pep*-Cy5 in comparison to 32% for pep*-FITC at 12 min, resulting ˜4-fold improvement in photostability (FIG. 4C).

[2] = at 12 min of continuous excitation

In the case of “SPT*-Cy5.5: control scrambled sequence SPTPSSR labeled with Cy5.5 via the GGGSK linker (SPTPSSRGGGSK-{Cy5.5}) [reference compound]”, the “signal for siCL versus siCLDN1 cells” value (claudin-1 (CLDN1); SW620 cells, control siRNA versus CLDN1 siRNA, 3 replicate slides) is reported as 0.80 fold-change, the “binding to the surface of SW620 cells” value (claudin-1 (CLDN1); confocal microscopy) is reported as “minimal binding” and the “fluorescence signal from dysplasia on endoscopy” value (colonic dysplasia) is reported as “minimal signal”.

In the case of SPTPSSR [SPT*], the “trans-epithelial electrical resistance (TEER)” value (T84 monolayers; 5 μM peptide, up to 24 hours) is reported as “high”, the “effect on tight junction function and ZO-1 distribution” value (T84 monolayers; 24 hours after peptide incubation) is reported as “neither peptide alters tight junction function or ZO-1 distribution” and the “fluorescence signal from dysplasia on endoscopy” value (colonic dysplasia) is reported as “minimal signal”. The “T/B ratio (mean±SD)” value (colonic dysplasia; n=10 dysplasias, topical 100 μM, 5 minutes) was 1.19±0.23.

With “pep*-Cy5: RTSPSSR labeled at the C-terminus with Cy5 via a GGGSK linker” the “binding to cell surface” value ([1]; 10 μM, 4° C., 1 hour, control tested on SW620 cells) was “specific binding”, the “Pearson's correlation ρ, co-localization with anti-claudin-1 antibody” value ([1]; SW620 cells) was 0.56 and the “mean fluorescence intensity (±SEM)” value (human colonic tissues; adenocarcinoma, n=5) was 31±4 AU. The sections stained (human colonic tissues; adenocarcinomas, 10/10 sections) was 100%, the “mean fluorescence intensity (±SEM)” value (human colonic tissues; adenoma, n=6) was 26±4 AU and the sections stained (human colonic tissues; colonic adenomas, 11/12 sections) was 92%. For the same substance, the “mean fluorescence intensity (±SEM)” value (human colonic tissues; normal colonic mucosa, n=4) was 7±2 AU, the “mean (±std) fluorescence intensity” value (SW620 cells) was 58.4±3.7 A.U and the “increase in signal using Cy5 label versus FITC” value (SW620 cells; SW620 cells) was roughly 20 fold. The “improvement in photostability compared to FITC-labeled peptide” value (SW620 cells; [2]) was roughly 4 fold and the “reduction in fluorescence intensity” value (SW620 cells; [2]) was 8.5%.

In the case of “pep*-FITC: RTSPSSR labeled at the C-terminus with FITC via a GGGSK linker”, the “mean (±std) fluorescence intensity” value (SW620 cells) is reported as 3.1±0.6 A.U and the “reduction in fluorescence intensity” value (SW620 cells; [2]) is reported as 32%.
